The values that follow come from patent publication US9265253B2, “Use of macrocyclic picolinamides as fungicides” (DOW AGROSCIENCES LLC, priority 2013, dated 2016).

Common to all, as to type: in vivo
Test [1] deals with Magnaporthe grisea; Anamorph: Pyricularia oryzae. The experiment in a line: whole plant or invertebrate. Conditions: Pyricularia oryzae, topical, 24 h, read-out: Disease Control PYRIOR 1 DP.
The next test deals with Phakopsora pachyrhizi. The experiment in a line: Asian Soybean Rust (PHAKPA) disease control. Conditions: Phakopsora pachyrhizi, topical. The gist of the method:
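Compounds in acetone diluted with nine volumes water containing 0.011% Tween 20, sprayed to run-off on two-week-old Williams 82 soybean seedlings, inoculated 3 days before or 1 day after treatment. Plants held 24 h in dark dew room at 22 °C, 100% RH, then at 23 °C; disease severity scored on sprayed leaves.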

The next test deals with Uncinula necator. Put plainly: Grape Powdery Mildew (UNCINE) disease control. The note with it: Erysiphe necator, topical, 24 h, 1 Day Protectant, read-out: Disease Control UNCINE 1 DP. Here is the method:
Technical grades of materials were dissolved in acetone, which were then mixed with nine volumes of water containing 110 ppm Triton X-100. The fungicide solutions were applied onto wheat seedlings using an automated booth sprayer to run-off. All sprayed plants were allowed to air dry prior to further handling. All fungicides were evaluated using the aforementioned method for their activity vs. all target diseases. Wheat leaf blotch and brown rust activity were also evaluated using track spray applications, in which case the fungicides were formulated as EC formulations, containing 0.1% Trycol 5941 in the spray solutions. Wheat plants (variety Yuma) were grown from seed in a greenhouse in 50% mineral soil/50% soil-less Metro mix until the first leaf was fully emerged, with 7-10 seedlings per pot. These plants were inoculated with an aqueous spore suspension of Septoria tritici either prior to or after fungicide treatments. After inoculation the plants were kept in 100% relative humidity (one day in a dark dew chamber followed by two to three days in a lighted dew chamber at 20° C.) to permit spores to germinate and infect the leaf. The plants were then transferred to a greenhouse set at 20° C. for disease to develop. When disease symptoms were fully expressed on the 1st leaves of untreated plants, infection levels were assessed on a scale of 0 to 100 percent disease severity. Percent disease control was calculated using the ratio of disease severity on treated plants relative to untreated plants. Grape seedlings (variety Carignane) were grown in soil-less Metro mix, with one plant per pot, and used in the test when approximately one month old. Plants were inoculated 24 hr after fungicide treatment by shaking spores from infected leaves over test plants. Plants were maintained in a greenhouse set at 20° C. until disease was fully developed. Fungicide formulation, application and disease assessment on the sprayed leaves followed the procedures as described in the Example A.

Another test deals with Cercospora beticola. The experiment in a line: Leaf Spot of Sugar Beets (CERCBE) disease control. The note with it: Cercospora beticola, topical, 24 h, 1 Day Protectant, sugar beet, read-out: Disease Control CERCBE 1 DP. On the procedure:
Technical grades of materials were dissolved in acetone, which were then mixed with nine volumes of water containing 110 ppm Triton X-100. The fungicide solutions were applied onto wheat seedlings using an automated booth sprayer to run-off. All sprayed plants were allowed to air dry prior to further handling. All fungicides were evaluated using the aforementioned method for their activity vs. all target diseases. Wheat leaf blotch and brown rust activity were also evaluated using track spray applications, in which case the fungicides were formulated as EC formulations, containing 0.1% Trycol 5941 in the spray solutions. Wheat plants (variety Yuma) were grown from seed in a greenhouse in 50% mineral soil/50% soil-less Metro mix until the first leaf was fully emerged, with 7-10 seedlings per pot. These plants were inoculated with an aqueous spore suspension of Septoria tritici either prior to or after fungicide treatments. After inoculation the plants were kept in 100% relative humidity (one day in a dark dew chamber followed by two to three days in a lighted dew chamber at 20° C.) to permit spores to germinate and infect the leaf. The plants were then transferred to a greenhouse set at 20° C. for disease to develop. When disease symptoms were fully expressed on the 1st leaves of untreated plants, infection levels were assessed on a scale of 0 to 100 percent disease severity. Percent disease control was calculated using the ratio of disease severity on treated plants relative to untreated plants. Sugar beet plants (variety HH88) were grown in soil-less Metro mix and trimmed regularly to maintain a uniform plant size prior to test. Plants were inoculated with a spore suspension 24 hr after fungicide treatments. Inoculated plants were kept in a dew chamber at 22° C. for 48 hr then incubated in a greenhouse set at 24° C. under a clear plastic hood with bottom ventilation until disease symptoms were fully expressed. Fungicide formulation, application and disease assessment on the sprayed leaves followed the procedures as described in the Example A.

A further test concerns Rhyncosporium secalis. The experiment in a line: Barley Scald (RHYNSE) disease control. The note with it: Hordeum vulgare, 24 h, 1 Day Protectant, read-out: Disease Control RHYNSE 1 DP. On the procedure:
Technical grades of materials were dissolved in acetone, which were then mixed with nine volumes of water containing 110 ppm Triton X-100. The fungicide solutions were applied onto wheat seedlings using an automated booth sprayer to run-off. All sprayed plants were allowed to air dry prior to further handling. All fungicides were evaluated using the aforementioned method for their activity vs. all target diseases. Wheat leaf blotch and brown rust activity were also evaluated using track spray applications, in which case the fungicides were formulated as EC formulations, containing 0.1% Trycol 5941 in the spray solutions. Wheat plants (variety Yuma) were grown from seed in a greenhouse in 50% mineral soil/50% soil-less Metro mix until the first leaf was fully emerged, with 7-10 seedlings per pot. These plants were inoculated with an aqueous spore suspension of Septoria tritici either prior to or after fungicide treatments. After inoculation the plants were kept in 100% relative humidity (one day in a dark dew chamber followed by two to three days in a lighted dew chamber at 20° C.) to permit spores to germinate and infect the leaf. The plants were then transferred to a greenhouse set at 20° C. for disease to develop. When disease symptoms were fully expressed on the 1st leaves of untreated plants, infection levels were assessed on a scale of 0 to 100 percent disease severity. Percent disease control was calculated using the ratio of disease severity on treated plants relative to untreated plants. Barley seedlings (variety Harrington) were propagated in soil-less Metro mix, with each pot having 8 to 12 plants, and used in the test when first leaf was fully emerged. Test plants were inoculated by an aqueous spore suspension of Rhyncosporium secalis 24 hr after fungicide treatments. After inoculation the plants were kept in a dew room at 20° C. with 100% relative humidity for 48 hr. The plants were then transferred to a greenhouse set at 20° C. for disease to develop. Fungicide formulation, application and disease assessment on the sprayed leaves followed the procedures as described in the Example A.

Where [2] appears, read: 24 h, 1 Day Protectant, read-out: Disease Control PHAKPA 1DP.
[3] abbreviates: 72 h, 3 Day Curative, read-out: Disease Control PHAKPA 3DC.

Read-outs that look alike come from different tables or passages of the source.

On to `CC[C@H]1CCC[C@H](NC(=O)c2nccc(OC)c2OC(C)=O)C(=O)O[C@@H](C)[C@@H]1Oc1ccccc1` [Compound F81], for which the pest or weed control at 100 ppm (in test [1]; with Uncinula necator; in the test on Cercospora beticola; in the test with Rhyncosporium secalis) was 80 to 100% throughout. Moreover, the pest or weed control at 25 ppm in the test on Phakopsora pachyrhizi (setting [2]) and with Phakopsora pachyrhizi (setting [3]) was 80 to 100% throughout.

For `COc1ccnc(C(=O)N[C@H]2CCC[C@H](Cc3ccccc3)[C@@H](OCC3CC3)[C@H](C)OC2=O)c1OCOC(C)=O` [Compound F107], the pest or weed control at 100 ppm in test [1] is 80 to 100%; with Uncinula necator it was 0 to 80%; in the test on Cercospora beticola it was 80 to 100%; with Rhyncosporium secalis it was 80 to 100%. For the same compound, the pest or weed control at 25 ppm in the test with Phakopsora pachyrhizi (setting [2]) and in the test with Phakopsora pachyrhizi (setting [3]) was 80 to 100% in each case.

As for `CCCO[C@@H]1[C@@H](CCC(C)C)CCC[C@H](NC(=O)c2nccc(OC)c2OCOC(C)=O)C(=O)O[C@H]1C` [Compound F92], the pest or weed control at 100 ppm (in test [1]; in the test with Uncinula necator; in the test on Cercospora beticola; in the test with Rhyncosporium secalis) was 80 to 100% in each case. For the same compound, the pest or weed control at 25 ppm in the test with Phakopsora pachyrhizi (setting [2]) and with Phakopsora pachyrhizi (setting [3]) was 80 to 100% in each case.

For `COc1ccnc(C(=O)N[C@H]2CCC[C@H](CC3CCCCC3)[C@@H](OCC(C)C)[C@H](C)OC2=O)c1OCOC(C)=O` [Compound F113], the pest or weed control at 100 ppm in test [1] was 80 to 100%; in the test on Uncinula necator, 0 to 80%; in the test with Cercospora beticola, 80 to 100%; with Rhyncosporium secalis, 80 to 100%. Further, the pest or weed control at 25 ppm in the test with Phakopsora pachyrhizi (setting [2]) was 80 to 100%; with Phakopsora pachyrhizi (setting [3]), 0 to 80%.

As to `CCCO[C@@H]1[C@@H](Cc2ccc(F)cc2)CCC[C@H](NC(=O)c2nccc(OC)c2OCOC(=O)COCC)C(=O)O[C@H]1C` [Compound F167], the pest or weed control at 100 ppm (in test [1]; in the test on Uncinula necator; with Cercospora beticola; with Rhyncosporium secalis) was 80 to 100% in each case. Moreover, the pest or weed control at 25 ppm in the test on Phakopsora pachyrhizi (setting [2]) is 80 to 100%; in the test on Phakopsora pachyrhizi (setting [3]) it was 0 to 80%.

Turning to `COc1ccnc(C(=O)N[C@H]2CCC[C@H](Cc3ccccc3)[C@@H](OCC(C)C)[C@H](C)OC2=O)c1OCOC(C)=O` [Compound F106], the pest or weed control at 100 ppm (in test [1]; with Uncinula necator; with Cercospora beticola; with Rhyncosporium secalis) was 80 to 100% in each case. The pest or weed control at 25 ppm with Phakopsora pachyrhizi (setting [2]) lay within 80 to 100%; in the test with Phakopsora pachyrhizi (setting [3]) it was 0 to 80%.

Consider `CCCO[C@@H]1[C@@H](Cc2ccccc2)CCC[C@H](NC(=O)c2nccc(OC)c2OCOC(C)=O)C(=O)O[C@H]1C` [Compound F109], for which the pest or weed control at 100 ppm (in test [1]; with Uncinula necator; in the test on Cercospora beticola; in the test with Rhyncosporium secalis) was 80 to 100% in each case. The pest or weed control at 25 ppm with Phakopsora pachyrhizi (setting [2]) is 80 to 100%; with Phakopsora pachyrhizi (setting [3]) it was 0 to 80%.

Consider `CCCO[C@@H]1[C@@H](CCC(C)C)CCC[C@H](NC(=O)c2nccc(OC)c2OC(C)=O)C(=O)O[C@H]1C` [Compound F64], for which the pest or weed control at 100 ppm (in test [1]; in the test with Uncinula necator; with Cercospora beticola; in the test on Rhyncosporium secalis) was 80 to 100% each time. The pest or weed control at 25 ppm with Phakopsora pachyrhizi (setting [2]) and in the test on Phakopsora pachyrhizi (setting [3]) was 80 to 100% each time.

Turning to `COc1ccnc(C(=O)N[C@H]2CCC[C@H](CC3CCCC3)[C@@H](OCC3CC3)[C@H](C)OC2=O)c1OCOC(C)=O` [Compound F117], the pest or weed control at 100 ppm (in test [1]; with Uncinula necator; in the test with Cercospora beticola; with Rhyncosporium secalis) was 80 to 100% in each case. Besides, the pest or weed control at 25 ppm in the test on Phakopsora pachyrhizi (setting [2]) and in the test on Phakopsora pachyrhizi (setting [3]) was 80 to 100% in each case.

Take `CCOCC(=O)OCOc1c(OC)ccnc1C(=O)N[C@H]1CCC[C@H](Cc2ccccc2)[C@@H](OCC2CC2)[C@H](C)OC1=O` [Compound F173]: the pest or weed control at 100 ppm in test [1] fell in the range of 80 to 100%; with Uncinula necator, 0 to 80%; with Cercospora beticola, 80 to 100%; with Rhyncosporium secalis, 80 to 100%. Also, the pest or weed control at 25 ppm in the test with Phakopsora pachyrhizi (setting [2]) and with Phakopsora pachyrhizi (setting [3]) was 80 to 100% throughout.

In the case of `COCC[C@H]1CCC[C@H](NC(=O)c2nccc(OC)c2OCOC(C)=O)C(=O)O[C@@H](C)[C@@H]1Oc1ccccc1` [Compound F130], the pest or weed control at 100 ppm in test [1] lay within 80 to 100%; in the test on Uncinula necator, 0 to 80%; with Cercospora beticola, 0 to 80%; in the test on Rhyncosporium secalis it was 80 to 100%. In addition, the pest or weed control at 25 ppm with Phakopsora pachyrhizi (setting [2]) and in the test with Phakopsora pachyrhizi (setting [3]) was 80 to 100% throughout.

Turning to `COCC[C@H]1CCC[C@H](NC(=O)c2nccc(OC)c2OC(C)=O)C(=O)O[C@@H](C)[C@@H]1Oc1ccccc1` [Compound F78], the pest or weed control at 100 ppm in test [1] lay in the range of 80 to 100%; in the test with Uncinula necator, 0 to 80%; with Cercospora beticola, 80 to 100%; in the test on Rhyncosporium secalis it was 80 to 100%. In addition, the pest or weed control at 25 ppm in the test with Phakopsora pachyrhizi (setting [2]) and with Phakopsora pachyrhizi (setting [3]) was 80 to 100% each time.

On to `C=C[C@H]1CCC[C@H](NC(=O)c2nccc(OC)c2OC(C)=O)C(=O)O[C@@H](C)[C@@H]1Oc1ccccc1` [Compound F86], for which the pest or weed control at 100 ppm (in test [1]; with Uncinula necator; in the test on Cercospora beticola; with Rhyncosporium secalis) was 80 to 100% in each case. The results for the pest or weed control at 25 ppm with Phakopsora pachyrhizi (setting [2]) and in the test with Phakopsora pachyrhizi (setting [3]) were 80 to 100% and 0 to 80%, respectively.
